The results in this text go back to patent publication US20250270209A1 (INTERLINE THERAPEUTICS, INC., priority 2022, published 2025).

pIC50: −log10 of the molar value.

Assay [1] has as its target T1, wild type LRRK2 overexpressed in recombinant HEK-293T cells (Homo sapiens, UniProt Q5S007).
T1 construct: host or cells: HEK293T (transient transfection with pCMV-LRRK2 WT plasmid)
The assay is described as follows: pS935 LRRK2 Cell Assay (HTRF, phospho-LRRK2 Ser935). In kind it is cell-based. The following applies: LRRK2 Inhibition, Table 8, 2 hours compound incubation. Summed up: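 Phospho-Ser935 LRRK2 measured by two-antibody HTRF (Eu-cryptate donor, d2 acceptor; 665/615 nm ratio) after overnight detection at 23° C. Before lysis, transiently LRRK2-transfected HEK-293T cells were exposed 2 h at 37° C to a 9-point, 3-fold series from 10 μM, with DMSO at 0.2%.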
On the technique in general: TR-FRET usually uses a lanthanide donor and a delayed reading to cut background.

Assay [2] concerns the target LRRK2 wild type enzyme (Homo sapiens, UniProt Q5S007). The assay is described as follows: Biochemical Assay: LRRK2 TR-FRET (LanthaScreen) kinase assay with LRRKtide substrate. The following applies: LRRK2 Inhibition, Table 8. Summed up:
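TR-FRET detection (Tb-labelled phospho-LRRKtide antibody, EDTA stop, 30 min) followed a 120 min, 23 °C reaction of 3 nM wild-type human LRRK2 with LRRKtide (400 nM) and ATP (25 μM) in Tris pH 8.0. Compounds: 11-point 3-fold series from 10 μM, 15 min enzyme preincubation.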

T1 sequence (Q5S007 whole entry): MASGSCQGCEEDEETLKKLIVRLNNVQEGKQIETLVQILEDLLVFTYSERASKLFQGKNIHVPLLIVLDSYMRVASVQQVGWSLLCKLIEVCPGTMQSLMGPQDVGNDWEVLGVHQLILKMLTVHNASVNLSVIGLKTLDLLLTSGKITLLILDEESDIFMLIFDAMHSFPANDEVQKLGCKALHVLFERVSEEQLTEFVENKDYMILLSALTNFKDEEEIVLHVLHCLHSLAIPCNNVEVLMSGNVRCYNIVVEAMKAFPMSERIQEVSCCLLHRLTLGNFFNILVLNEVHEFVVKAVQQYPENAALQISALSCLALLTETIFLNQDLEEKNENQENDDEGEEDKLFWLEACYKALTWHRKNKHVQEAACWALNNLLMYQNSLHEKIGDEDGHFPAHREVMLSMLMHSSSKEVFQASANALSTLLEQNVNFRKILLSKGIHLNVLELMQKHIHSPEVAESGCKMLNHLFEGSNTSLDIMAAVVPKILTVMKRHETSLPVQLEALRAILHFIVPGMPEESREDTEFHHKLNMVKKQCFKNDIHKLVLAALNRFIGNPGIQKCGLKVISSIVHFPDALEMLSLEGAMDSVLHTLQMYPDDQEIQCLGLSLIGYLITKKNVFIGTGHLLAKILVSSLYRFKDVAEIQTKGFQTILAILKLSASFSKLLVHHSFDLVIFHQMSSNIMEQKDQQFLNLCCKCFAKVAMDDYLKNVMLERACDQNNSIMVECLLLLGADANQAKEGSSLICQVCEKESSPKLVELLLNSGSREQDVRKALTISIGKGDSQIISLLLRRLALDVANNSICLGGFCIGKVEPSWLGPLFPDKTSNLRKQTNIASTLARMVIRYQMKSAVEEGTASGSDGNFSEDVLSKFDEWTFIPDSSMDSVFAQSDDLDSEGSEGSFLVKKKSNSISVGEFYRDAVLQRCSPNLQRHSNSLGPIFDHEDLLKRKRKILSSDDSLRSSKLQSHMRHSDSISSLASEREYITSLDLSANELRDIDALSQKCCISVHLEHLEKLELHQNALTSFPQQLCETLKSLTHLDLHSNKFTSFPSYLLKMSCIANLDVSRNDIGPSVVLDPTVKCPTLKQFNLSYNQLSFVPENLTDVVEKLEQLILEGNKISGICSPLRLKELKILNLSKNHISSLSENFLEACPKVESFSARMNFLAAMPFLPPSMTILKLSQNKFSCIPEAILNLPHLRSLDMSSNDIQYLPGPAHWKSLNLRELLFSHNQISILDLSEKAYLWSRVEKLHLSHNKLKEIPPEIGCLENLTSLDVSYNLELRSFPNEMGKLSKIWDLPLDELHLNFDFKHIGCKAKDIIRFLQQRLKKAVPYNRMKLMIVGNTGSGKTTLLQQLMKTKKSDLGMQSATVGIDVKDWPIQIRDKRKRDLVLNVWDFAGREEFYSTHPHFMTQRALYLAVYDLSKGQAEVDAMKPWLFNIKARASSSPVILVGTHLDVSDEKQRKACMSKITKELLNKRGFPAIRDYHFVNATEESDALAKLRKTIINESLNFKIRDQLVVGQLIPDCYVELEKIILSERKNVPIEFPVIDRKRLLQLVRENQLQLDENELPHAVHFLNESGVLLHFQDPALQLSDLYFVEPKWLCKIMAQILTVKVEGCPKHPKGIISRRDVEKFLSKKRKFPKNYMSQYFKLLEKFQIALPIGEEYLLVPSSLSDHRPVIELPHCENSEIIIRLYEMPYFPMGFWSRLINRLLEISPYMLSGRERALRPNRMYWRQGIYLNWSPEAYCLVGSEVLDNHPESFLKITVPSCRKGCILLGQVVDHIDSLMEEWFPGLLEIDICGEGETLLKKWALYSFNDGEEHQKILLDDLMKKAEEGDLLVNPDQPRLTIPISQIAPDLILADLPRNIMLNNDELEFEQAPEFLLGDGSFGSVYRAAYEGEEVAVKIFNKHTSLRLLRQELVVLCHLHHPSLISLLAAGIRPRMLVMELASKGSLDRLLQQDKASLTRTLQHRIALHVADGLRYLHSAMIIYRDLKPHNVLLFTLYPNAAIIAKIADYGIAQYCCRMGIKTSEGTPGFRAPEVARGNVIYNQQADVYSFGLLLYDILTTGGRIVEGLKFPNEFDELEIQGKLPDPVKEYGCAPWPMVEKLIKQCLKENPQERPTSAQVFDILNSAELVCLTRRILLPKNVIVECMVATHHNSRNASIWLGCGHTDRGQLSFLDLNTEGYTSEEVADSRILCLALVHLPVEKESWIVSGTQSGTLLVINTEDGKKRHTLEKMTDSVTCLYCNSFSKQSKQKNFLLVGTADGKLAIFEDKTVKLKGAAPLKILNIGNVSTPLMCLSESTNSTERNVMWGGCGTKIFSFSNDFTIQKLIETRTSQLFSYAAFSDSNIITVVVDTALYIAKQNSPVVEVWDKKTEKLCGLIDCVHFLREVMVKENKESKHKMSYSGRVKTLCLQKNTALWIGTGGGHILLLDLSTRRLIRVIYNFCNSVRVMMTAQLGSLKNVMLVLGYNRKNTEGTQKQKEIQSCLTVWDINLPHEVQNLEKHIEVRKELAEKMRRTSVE
LRRK2 wild type enzyme, sequence (Q5S007 whole entry): as above

Broadly, the pIC50 is −log10 of the IC50, conventionally taken in molar units. With `Cc1noc(C)c1NC(=O)Cc1nc2cnc3ccc(C#N)cc3c2n1[C@@H]1CCO[C@H](C)C1` [Compound 201, N-(3,5-dimethyl-4-isoxazolyl){3-[(2R,4R)-2-methyltetrahydro-2H-pyran-4-yl]-12-cyano-3,5,8-triazatricyclo[7.4.0.0^2,6]trideca-1,4,6,8,10,12-hexaen-4-yl}acetamide], the pIC50 in assay [1] is 7.94; in assay [2], 9.42.

Turning to `CC(C)NC(=O)Cc1nc2cnc3ccc(C#N)cc3c2n1[C@@H]1CCO[C@H](C)C1` [Compound 14, 2-{8-cyano-1-[(2R,4R)-2-methyloxan-4-yl]-1H-imidazo[4,5-c]quinolin-2-yl}-N-(propan-2-yl)acetamide], the pIC50 is 7.36 in assay [1] and 8.15 in assay [2].

Consider `C[C@@H]1C[C@H](n2c(CC(=O)Nc3cnn(C)c(=O)c3)nc3cnc4ccc(C#N)cc4c32)CCO1` [Compound 264, N-(1-methyl-6-oxo-1,6-dihydro-4-pyridazinyl){3-[(2R,4R)-2-methyltetrahydro-2H-pyran-4-yl]-12-cyano-3,5,8-triazatricyclo[7.4.0.0^2,6]trideca-1,4,6,8,10,12-hexaen-4-yl}acetamide], for which the pIC50 in assay [1] is 7.13; in assay [2] it was 9.31.

Consider `C[C@@H]1C[C@H](n2c(CC(=O)Nc3ncccn3)nc3cnc4ccc(Cl)cc4c32)CCO1` [Compound 353, N-2-pyrimidinyl{3-[(2R,4R)-2-methyltetrahydro-2H-pyran-4-yl]-12-chloro-3,5,8-triazatricyclo[7.4.0.0^2,6]trideca-1(9),2(6),4,7,10,12-hexaen-4-yl}acetamide], for which the pIC50 in assay [1] is 8.74; in assay [2] it was 9.40.

For `C[C@@H]1C[C@H](n2c(C3CC(=O)N(Cc4ccccn4)C3)nc3cnc4ccc(C#N)cc4c32)CCO1` (mixture of isomers) [Compound 61, 1-[(2R,4R)-2-methyloxan-4-yl]-2-{5-oxo-1-[(pyridin-2-yl)methyl]pyrrolidin-3-yl}-1H-imidazo[4,5-c]quinoline-8-carbonitrile], the pIC50 in assay [1] was 7.05; in assay [2], 8.96.

As to `C[C@@H]1C[C@H](n2c(CC(=O)NCc3cnccn3)nc3cnc4ccc(Cl)cc4c32)CCO1` [Compound 150, 2-{8-chloro-1-[(2R,4R)-2-methyloxan-4-yl]-1H-imidazo[4,5-c]quinolin-2-yl}-N-[(pyrazin-2-yl)methyl]acetamide], the pIC50 in assay [1] was 8.14; in assay [2], 9.33.

Turning to `Cc1ccnc(C)c1NC(=O)Cc1nc2cnc3ccc(C#N)cc3c2n1[C@@H]1CCO[C@H](C)C1` [Compound 256, N-(2,4-dimethyl-3-pyridyl){3-[(2R,4R)-2-methyltetrahydro-2H-pyran-4-yl]-12-cyano-3,5,8-triazatricyclo[7.4.0.0^2,6]trideca-1,4,6,8,10,12-hexaen-4-yl}acetamide], the pIC50 in assay [1] was 7.82; in assay [2] it was 9.31.

With `C[C@@H]1C[C@H](n2c(CC(N)=O)nc3cnc4ccc(C#N)cc4c32)CCO1` [Compound 16, 2-{8-cyano-1-[(2R,4R)-2-methyloxan-4-yl]-1H-imidazo[4,5-c]quinolin-2-yl}acetamide], the negative logarithm of the IC50 (pIC50) in assay [1] was 6.84; in assay [2], 8.94.

With `C[C@@H]1C[C@H](n2c([C@@H]3CN(CC4CC4)C(=O)O3)nc3cnc4ccc(C#N)cc4c32)CCO1` [Compound 37, 2-[(5S)-3-(cyclopropylmethyl)-2-oxo-1,3-oxazolidin-5-yl]-1-[(2R,4R)-2-methyloxan-4-yl]-1H-imidazo[4,5-c]quinoline-8-carbonitrile], the pIC50 in assay [1] is 5.43; in assay [2], 7.27.

On to `COc1cc(C2CC2)ncc1NC(=O)Cc1nc2cnc3ccc(C#N)cc3c2n1[C@@H]1CCO[C@H](C)C1` [Compound 213, N-(6-cyclopropyl-4-methoxy-3-pyridyl){3-[(2R,4R)-2-methyltetrahydro-2H-pyran-4-yl]-12-cyano-3,5,8-triazatricyclo[7.4.0.0^2,6]trideca-1,4,6,8,10,12-hexaen-4-yl}acetamide], for which the values for the pIC50 in assay [1] and in assay [2] were 8.40 and 9.39, respectively.

Take `C[C@@H]1C[C@H](n2c(CC(=O)NC3CCC3)nc3cnc4ccc(C#N)cc4c32)CCO1` [Compound 84, 2-{8-cyano-1-[(2R,4R)-2-methyloxan-4-yl]-1H-imidazo[4,5-c]quinolin-2-yl}-N-cyclobutylacetamide]: the pIC50 in assay [1] was 7.58; in assay [2], 9.36.

With `C[C@@H]1C[C@H](n2c(CC(=O)N[C@@H]3C[C@H]3c3cccnc3)nc3cnc4ccc(C#N)cc4c32)CCO1` [Compound 348, N-[(1R,2S)-2-(3-pyridyl)cyclopropyl]{3-[(2R,4R)-2-methyltetrahydro-2H-pyran-4-yl]-12-cyano-3,5,8-triazatricyclo[7.4.0.0^2,6]trideca-1(9),2(6),4,7,10,12-hexaen-4-yl}acetamide], the figures for the pIC50 in assay [1] and in assay [2] were 7.49 and 9.14, respectively.

With `C[C@@H]1C[C@H](n2c(CC(=O)Nc3ccnn3C)nc3cnc4ccc(C#N)cc4c32)CCO1` [Compound 169, 2-{8-cyano-1-[(2R,4R)-2-methyloxan-4-yl]-1H-imidazo[4,5-c]quinolin-2-yl}-N-(1-methyl-1H-pyrazol-5-yl)acetamide], the pIC50 is 7.84 in assay [1] and 9.50 in assay [2].

For the compound `C[C@@H]1C[C@H](n2c(CC(=O)NC3(C#N)CC3)nc3cnc4ccc(C#N)cc4c32)CCO1` [Compound 282, N-1-cyanocyclopropyl{3-[(2R,4R)-2-methyltetrahydro-2H-pyran-4-yl]-12-cyano-3,5,8-triazatricyclo[7.4.0.0^2,6]trideca-1,4,6,8,10,12-hexaen-4-yl}acetamide], the values for the pIC50 in assay [1] and in assay [2] were 6.73 and 9.21, respectively.

Regarding `C[C@@H]1C[C@H](n2c(C3CCN(S(=O)(=O)c4cnn(C)c4)CC3)nc3cnc4ccc(C#N)cc4c32)CCO1` [Compound 121, 2-{1-[(1-methyl-1H-pyrazol-4-yl)sulfonyl]piperidin-4-yl}-1-[(2R,4R)-2-methyloxan-4-yl]-1H-imidazo[4,5-c]quinoline-8-carbonitrile], the pIC50 was 6.31 in assay [1] and 8.74 in assay [2].

For `Cc1nc(C)c(NC(=O)Cc2nc3cnc4ccc(C#N)cc4c3n2[C@@H]2CCO[C@H](C)C2)c(C)n1` [Compound 253, N-(2,4,6-trimethyl-5-pyrimidinyl){3-[(2R,4R)-2-methyltetrahydro-2H-pyran-4-yl]-12-cyano-3,5,8-triazatricyclo[7.4.0.0^2,6]trideca-1,4,6,8,10,12-hexaen-4-yl}acetamide], the pIC50 in assay [1] was 7.59; in assay [2] it was 9.27.

Regarding `C[C@@H]1C[C@H](n2c(CC(=O)NC3CC3)nc3cnc4ccc(Cl)cc4c32)CCO1` [Compound 183, 2-{8-chloro-1-[(2R,4R)-2-methyloxan-4-yl]-1H-imidazo[4,5-c]quinolin-2-yl}-N-cyclopropylacetamide], the pIC50 in assay [1] is 7.95; in assay [2] it was 9.59.

Turning to `C[C@@H]1C[C@H](n2c(CNS(C)(=O)=O)nc3cnc4ccc(C#N)cc4c32)CCO1` [Compound 21, N-({8-cyano-1-[(2R,4R)-2-methyloxan-4-yl]-1H-imidazo[4,5-c]quinolin-2-yl}methyl)methanesulfonamide], the pIC50 is 6.19 in assay [1] and 8.29 in assay [2].

Consider `C[C@@H]1C[C@H](n2c(CCC(=O)NCC3CC3)nc3cnc4ccc(C#N)cc4c32)CCO1` [Compound 170, 3-{8-cyano-1-[(2R,4R)-2-methyloxan-4-yl]-1H-imidazo[4,5-c]quinolin-2-yl}-N-(cyclopropylmethyl)propanamide], for which the pIC50 in assay [1] is 6.48; in assay [2], 8.51.

For the compound `C[C@@H]1C[C@H](n2c(CC(=O)NC3(C)CCOC3)nc3cnc4ccc(Cl)cc4c32)CCO1` (stereo partly drawn) [Compound 333, N-(3-methyltetrahydro-3-furyl){3-[(2R,4R)-2-methyltetrahydro-2H-pyran-4-yl]-12-chloro-3,5,8-triazatricyclo[7.4.0.0^2,6]trideca-1(9),2(6),4,7,10,12-hexaen-4-yl}acetamide], the results for the pIC50 in assay [1] and in assay [2] were 7.51 and 8.90, respectively.

For `C[C@@H]1C[C@H](n2c(CC(=O)N[C@H]3CCOC3)nc3cnc4ccc(Cl)cc4c32)CCO1` [Compound 147, 2-{8-chloro-1-[(2R,4R)-2-methyloxan-4-yl]-1H-imidazo[4,5-c]quinolin-2-yl}-N-[(3S)-oxolan-3-yl]acetamide], the results for the pIC50 in assay [1] and in assay [2] were 8.00 and 9.41, respectively.

On to `COc1ncnc(OC)c1NC(=O)Cc1nc2cnc3ccc(C#N)cc3c2n1[C@@H]1CCO[C@H](C)C1` [Compound 247, N-(4,6-dimethoxy-5-pyrimidinyl){3-[(2R,4R)-2-methyltetrahydro-2H-pyran-4-yl]-12-cyano-3,5,8-triazatricyclo[7.4.0.0^2,6]trideca-1(9),2(6),4,7,10,12-hexaen-4-yl}acetamide], for which the negative logarithm of the IC50 (pIC50) in assay [1] is 8.39; in assay [2], 9.46.

`COCCNC(=O)Cc1nc2cnc3ccc(Cl)cc3c2n1[C@@H]1CCO[C@H](C)C1` [Compound 164, 2-{8-chloro-1-[(2R,4R)-2-methyloxan-4-yl]-1H-imidazo[4,5-c]quinolin-2-yl}-N-(2-methoxyethyl)acetamide]: the pIC50 in assay [1] was 7.82; in assay [2] it was 9.43.

For `C[C@@H]1C[C@H](n2c(CC(=O)Nc3cn(C)c(C(F)(F)F)cc3=O)nc3cnc4ccc(C#N)cc4c32)CCO1` [Compound 232, N-[1-methyl-4-oxo-6-(trifluoromethyl)-1,4-dihydro-3-pyridyl]{3-[(2R,4R)-2-methyltetrahydro-2H-pyran-4-yl]-12-cyano-3,5,8-triazatricyclo[7.4.0.0^2,6]trideca-1,4,6,8,10,12-hexaen-4-yl}acetamide], the pIC50 was 7.43 in assay [1] and 9.10 in assay [2].
